Marks after values point to notes of the source that are not given here.

One data set deals with T1, hERG potassium channel (Homo sapiens, UniProt Q12809).
T1 construct: expressed in transfected cells
As to the kind of experiment: Whole cell patch clamp, inhibition of hERG tail current. In kind it is cell-based. Here is the method:
Test Case 2: Studies on the Effect of Compounds EXP 1, TAK-438 and EXP 12 on hERG Potassium Channel Testing System 1) Cell culture: the hERG cell is cultured in a routine way, which is subcultured in a DMEM containing 10% of fetal calf serum and 250 μg/ml of G418. 2) Fluid preparation: the composition of the extracellular fluid used in the experiment of whole cell patch clamp comprises (mM): NaCl 145, MgCl21, KCl 4, Glucose 10, HEPES 10 and CaCl22; adjusting the pH value of NaOH to 7.4 and adjusting the value of osmotic pressure to 300 mOsm with sucrose. The composition of the intracellular fluid comprises (mM):KCl 140; MgCl 21; EGTA 5; HEPES 10 and Na2ATP 4; adjusting the pH value of KOH to 7.2 and adjusting the value of osmotic pressure to 290 mOsm with sucrose.
Main composition of the extracellular and intracellular fluid
Test Procedure 1) Electrophysiological recording: taking out one culture dish for each test; cleaning it with the extracellular fluid twice and placing it on the inverted microscope stage. The experiment of whole cell patch clamp is conducted at ambient temperature; the resistance at the microelectrode tip of the used borosilicate glass is 3-5 MQ. 2) Voltage stimulus plan and current record: clamping down the membrane potential to −80 mV under the whole-cell recording mode; giving +50 mV of depolarized voltage stimulus to the cell every 30 s and lasting for 2 s, then repolarizing it to −50 mV and lasting for 3 s, thus, the tail current of hERG can be extracted. Giving 50 ms, −50 mV repolarized voltage to the cell before depolarized voltage stimulus; the current recorded at such voltage is as the base line for calculating the tail current of hERG. Only the cells meet the recording standard can be used in the test of the compounds to be tested. The hERG tail current should be recorded stably at last for 3 min in the extracellular fluid before the compound is added. After perfusion of drugs, it can be regarded that the drug effect reaches a steady state if the change of the amplitude of hERG tail current is less than 5%. If the current fails to reach a steady state in 6 min, the test should also be terminated. 3) Testing standard: the membrane resistance in the experiment should be more than 1,000 MQ. The initial current should be more than 300 pA. The series resistance should be less than 12 MQ after the whole-cell recording mode is constructed. The leakage current is less than 10% of the ionic channel current (taking −80 pA as the peak value). Data Analysis
Using Clampex 10.2 to record the original data and saving the data in the format of *abf. Using pCLAMP 10.1 to conduct data collection and analysis. Selecting 4-5 sweeps when the current is in a steady state before the compound is added; calculating the average peak value to serve as the contrasted current amplitude. Selecting 4-5 sweeps when the current is in a steady state after the compound is added; calculating the average peak value to serve as the residual amplitude of the inhibited current. The inhibition ratio of the compound to be tested to hERG current is calculated as per the equation as: % inhibition ratio={1−(current residual amplitude)/(contrasted current amplitude)}*100
After the inhibition ratio (average value±standard deviation) of the compound to be tested to the hERG current of different concentrations is obtained through the above computing method, the data with logistic equation should be fitted to obtain the value of IC50.

The target of a further data set is T2, H^+/K^+-ATPase (Oryctolagus cuniculus, UniProt P27112).
T2 construct: collecting the middle layer (H^+/K^+-ATPase enriched gastric membranes) into a clean centrifugal tube; from tissue; host or cells: rabbit stomach (gastric mucosal microsomes, sucrose/Ficoll gradient centrifugation)
Nature of the data set: Inhibition of H+/K+-ATPase enzymatic activity (rabbit gastric mucosal microsomes, malachite green). In kind it is biochemical. The conditions noted are these: pH 6.5, 37° C. 30 min, read-out: The median inhibitory concentration (IC50) of the compound to the activity of H^+/K^+-ATPase. The text has this:
Biological Evaluation on H^+/K^+-ATPase
The following screening assays in vitro are used to evaluate the inhibiting effect of the compound of the Invention on the enzymatic activity of H^+/K^+-ATPase. Experimental materials and instruments are as follows:
1) Rabbit gastric mucosal microsomes (enriched H^+/K^+-ATPase; extracted by the Applicant)
2) Buffer solution: 50 mmol/L HEPEs-Tris, pH=6.5, 5 mmol/L magnesium chloride, 10 μmol/L valinomycin;
3) Buffer solution: 50 mmol/L HEPEs-Tris, pH=6.5, 5 mmol/L magnesium chloride, 10 μmol/L valinomycin, 5 mmol/L potassium chloride;
4) ATP: diluting ATP to 5 mM with buffer solution 1;
5) Malachite green solution: dissolving 0.12% of malachite green in 2.5 mol/L of sulfuric acid; mixing 7.5% (V/V) of ammonium molybdate and 11% of Tween 20(V/V) in a proportion of 100:25:2;
6) The method for extracting rabbit gastric mucosal microsomes (enriched H^+/K^+-ATPase) is sucrose gradient centrifugation, i.e., washing the rabbit stomach with tap water and 3M NaCl solution respectively and removing the surface moisture with filter paper; adding the pre-cooled buffer solution (4 ml/g tissue) for homogenation in a tissue homogenizer for 2-5 min; removing the large tissue particles in a way of centrifugation (600 g, 10 mm) if any after homogenation; transferring the supernatant to a clean centrifugal tube for centrifugation for 30 min at 2000 g; then transferring the supernatant to a clean centrifugal tube for further centrifugation for 90 min at 100000 g; collecting the sediment; suspending the sediment in the homogenate and blowing it to be uniform; measuring the protein concentration with Bradford method; adjusting the concentration to 10 mg/ml; adding 7.5% Ficoll demixing fluid in an equal proportion for centrifugation for 60 min at 100000 g; collecting the middle layer (H^+/K^+-ATPase enriched gastric membranes) into a clean centrifugal tube; diluting it with 4-5 times of homogenate for further centrifugation for 90 min at 100000 g; collecting the sediment; suspending the sediment in the homogenate for homogenation with a glass homogenizer; measuring the protein concentration with Bradford method and adjusting the concentration to 22.5 mg/ml; freezing it under −80° C. for standby. Experimental Process:
Adding 5 μL of gastric mucosal microsomes (H^+/K^+-ATPase) in 45 µL of buffer solution 2; adding 5 μL of the compound solution; adding 5 μL 5 mM of ATP to start the reaction for pre-reaction at 37° C. for 30 min; adding 15 μL of malachite green solution to terminate the reaction; balancing at ambient temperature for 20 min; reading the value of absorbed light at 620 nm.
Meanwhile, conducting another reaction with the same volume without potassium chloride for background, which will be subtracted when calculating the enzymatic activity.
The value of Compound IC50 is calculated through the inhibition ratios at different concentrations.

The test system of data set [1] is gastric acid secretion induced by histamine. Nature of the data set: Gastric acid secretion induced by histamine in pylorus-ligated rats. The format is in vivo. The note with it: SD rat. The text has this: Test Case 3: Studies on the Effect of EXP 1, TAK-438 and EXP 14 on Gastric Acid Secretion Induced by Histamine Experimental Materials 1) Animals
SD rat, class SPF, male, 180-220 g; provided by Zhejiang Experimental Animal Center; production permit no.: SCXK (Z) 2014-0001.
Compound EXP 1, dissolved with a small amount of acetic acid (about 1.10N EXP 1), 0.9% sodium chloride solution to a clear liquid with needed concentration before use.
>Compound TAK-438, dissolved with 0.9% sodium chloride solution to a clear liquid with needed concentration before use.
Compound EXP 14, dissolved with a small amount of acetic acid (about 1.10N EXP 14), 0.9% sodium chloride solution to a clear liquid with needed concentration before use.
Fetching 60 SD rats of class SPF with a weight of 180-220 g; dividing the rats into 5 groups as per weights randomly, including Group EXP 1 (2 mg/kg), Group TAK-438 (2 mg/kg, as per free alkali), Group EXP 14 (2 mg/kg), Group negative control (normal saline of equal volume) and Group model control (normal saline of equal volume); 12 rats per group. Absolute diet for 24 h, water is allowed. After 24 h, administrating drugs to the tested compound groups A, B and C by gavage with a volume of 1 ml/100 g; each group is administered once; the negative control and model negative control groups are administrated by gavage with normal saline of equal volume. Narcotizing the rat with 300 mg/kg of chloral hydrate (1 ml/100 g) and fixing it onto the rat board; cutting to open the abdominal wall along the medioventral line from the mucronate cartilage with an incision of 2-3 cm; slightly pushing the left costal margin upward to expose the stomach in the incision. Ligaturing the pylorus thereunder (leave alone the adjacent blood vessels) and then suturing the abdominal incision. Giving histamine dihydrochloride (30 mg/10 m/kg) hypodermically to the rat 1 h after the tested compound or normal saline are administrated. Choking the rat to death with excessive CO2 3 h after the histamine is given; taking out the stomach and collecting the gastric contents for centrifugation at 3000 rpm/min; adjusting the PH value of the acid fluid to 7.0 with 0.1 mol/L of NaOH titration and then calculating the total acid content of the 3 h. Refer to Table 3 for results.

T2 sequence (P27112 whole entry): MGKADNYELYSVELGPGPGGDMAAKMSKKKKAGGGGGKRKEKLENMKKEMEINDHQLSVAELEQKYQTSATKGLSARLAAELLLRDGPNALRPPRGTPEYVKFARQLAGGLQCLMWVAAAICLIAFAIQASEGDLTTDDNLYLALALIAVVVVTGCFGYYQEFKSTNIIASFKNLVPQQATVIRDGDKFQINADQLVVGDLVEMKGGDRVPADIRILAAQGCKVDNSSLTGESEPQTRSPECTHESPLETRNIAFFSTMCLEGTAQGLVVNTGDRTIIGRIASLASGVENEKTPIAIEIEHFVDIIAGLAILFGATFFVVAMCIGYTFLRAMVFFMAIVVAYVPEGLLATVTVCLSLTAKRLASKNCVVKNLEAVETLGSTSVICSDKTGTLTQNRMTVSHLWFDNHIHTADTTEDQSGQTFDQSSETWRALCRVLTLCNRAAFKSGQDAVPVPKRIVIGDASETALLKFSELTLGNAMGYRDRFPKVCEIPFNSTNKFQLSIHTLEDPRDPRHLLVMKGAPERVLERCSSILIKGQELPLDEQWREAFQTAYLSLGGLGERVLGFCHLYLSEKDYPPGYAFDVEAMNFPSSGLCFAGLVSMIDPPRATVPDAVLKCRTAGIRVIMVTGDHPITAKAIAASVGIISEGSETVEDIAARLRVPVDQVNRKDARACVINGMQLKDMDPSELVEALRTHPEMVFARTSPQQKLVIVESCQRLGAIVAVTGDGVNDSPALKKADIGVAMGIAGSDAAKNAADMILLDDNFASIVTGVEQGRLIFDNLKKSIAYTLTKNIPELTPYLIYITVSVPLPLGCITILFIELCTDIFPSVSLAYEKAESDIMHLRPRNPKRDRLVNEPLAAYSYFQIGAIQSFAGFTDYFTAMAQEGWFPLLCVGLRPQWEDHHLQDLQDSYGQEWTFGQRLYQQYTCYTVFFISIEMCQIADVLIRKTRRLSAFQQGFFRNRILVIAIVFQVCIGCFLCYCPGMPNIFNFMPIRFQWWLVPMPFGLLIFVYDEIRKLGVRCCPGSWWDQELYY
T2 sequence (P18597 whole entry partner): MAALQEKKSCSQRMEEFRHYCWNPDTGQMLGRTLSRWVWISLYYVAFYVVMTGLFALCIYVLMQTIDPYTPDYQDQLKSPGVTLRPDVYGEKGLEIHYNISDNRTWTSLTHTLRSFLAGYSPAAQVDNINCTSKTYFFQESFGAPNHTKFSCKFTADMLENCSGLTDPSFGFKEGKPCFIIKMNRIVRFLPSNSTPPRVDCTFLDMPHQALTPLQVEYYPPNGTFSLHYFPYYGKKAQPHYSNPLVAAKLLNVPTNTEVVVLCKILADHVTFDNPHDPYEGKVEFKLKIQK
T1 sequence (Q12809 whole entry): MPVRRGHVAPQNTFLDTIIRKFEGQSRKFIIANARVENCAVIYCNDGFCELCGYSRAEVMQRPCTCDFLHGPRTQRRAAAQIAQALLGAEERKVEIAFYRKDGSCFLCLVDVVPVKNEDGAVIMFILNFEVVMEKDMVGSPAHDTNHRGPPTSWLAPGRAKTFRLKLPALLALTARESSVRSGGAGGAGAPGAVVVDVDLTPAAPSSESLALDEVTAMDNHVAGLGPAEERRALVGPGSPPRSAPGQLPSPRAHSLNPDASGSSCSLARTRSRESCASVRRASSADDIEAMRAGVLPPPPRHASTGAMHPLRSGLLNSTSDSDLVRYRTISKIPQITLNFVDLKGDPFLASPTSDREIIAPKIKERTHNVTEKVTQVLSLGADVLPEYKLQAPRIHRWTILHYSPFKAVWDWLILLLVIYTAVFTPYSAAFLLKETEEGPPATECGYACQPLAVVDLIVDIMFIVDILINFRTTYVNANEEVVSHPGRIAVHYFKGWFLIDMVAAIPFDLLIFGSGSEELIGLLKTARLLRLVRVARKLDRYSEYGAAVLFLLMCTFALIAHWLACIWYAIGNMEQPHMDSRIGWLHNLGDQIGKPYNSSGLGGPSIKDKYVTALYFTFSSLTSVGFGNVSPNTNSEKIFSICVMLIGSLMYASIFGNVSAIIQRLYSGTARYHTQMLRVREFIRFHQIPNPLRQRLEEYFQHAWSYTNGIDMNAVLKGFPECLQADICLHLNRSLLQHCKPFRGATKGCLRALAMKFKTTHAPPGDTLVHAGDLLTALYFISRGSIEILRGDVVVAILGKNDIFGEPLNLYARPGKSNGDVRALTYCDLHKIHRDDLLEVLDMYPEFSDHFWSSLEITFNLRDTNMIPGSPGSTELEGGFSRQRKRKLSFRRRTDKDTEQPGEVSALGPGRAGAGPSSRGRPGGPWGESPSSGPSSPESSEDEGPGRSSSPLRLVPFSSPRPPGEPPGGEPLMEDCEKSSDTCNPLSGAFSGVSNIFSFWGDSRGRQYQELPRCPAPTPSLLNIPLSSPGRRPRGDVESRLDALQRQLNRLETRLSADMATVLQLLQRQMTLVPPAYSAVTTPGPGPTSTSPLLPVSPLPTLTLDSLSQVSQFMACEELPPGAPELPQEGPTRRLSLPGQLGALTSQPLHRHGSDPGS

Take `CNCc1cc(-c2ccccc2F)n(S(=O)(=O)c2cccc(OC)c2)c1` [EXP 12]: the IC50 against hERG potassium channel (human, hERG cells (host cell line not named), pH 7.4, whole cell patch clamp, logistic fit) was 3950 nM; on H^+/K^+-ATPase, under 100 nM. Also, the “Inhibition ratio of max. test concentration (hERG current)” value at hERG potassium channel (max. test concentration 30 μM) was found to be 90.33 ± 2.16%.

`CNCc1cc(-c2ccccc2F)n(S(=O)(=O)c2cccc(OCCOc3ccccc3)c2)c1` [EXP 10, 1-(5-(2-Fluorobenzene)-1-((3-(2-Phenoxy Ethyoxyl)Phenyl)Sulfonyl)-1H-Pyrrole-3-Yl)-N-Methyl Methylamine]: on H^+/K^+-ATPase, the IC50 is under 100 nM.

For `CNCc1cc(-c2ccccc2F)n(S(=O)(=O)c2cccc(OCCCS(C)(=O)=O)c2)c1` [EXP 4, 1-(5-(2-fluorobenzene)-1-((3-(3-methylsulphonylpropoxy)phenyl)sulfonyl)-1H-pyrrole-3-yl)-N-methyl methylamine], the IC50 at H^+/K^+-ATPase is under 100 nM.

Take `CNCCCOc1cccc(S(=O)(=O)n2cc(CNC)cc2-c2ccccc2F)c1` [EXP 7, 3-(3-((2-(2-fluorobenzene)-4-((methylamino)methylene)-1H-pyrrole-1-yl)sulfonyl)phenoxy)-N-methyl-n-propylamine]: on H^+/K^+-ATPase, the IC50 was in the range of 100 to 1000 nM.

As for `CNCc1cc(-c2ccccc2F)n(S(=O)(=O)c2cccc(OCCN3CCOCC3)c2)c1` [EXP 5, 1-(5-(2-Fluorobenzene)-1-((3-(2-Morpholinyl Ethyoxyl)Phenyl)Sulfonyl)-1H-Pyrrole-3-Yl)-N-Methyl Methylamine], the IC50 at H^+/K^+-ATPase lay within 100 to 1000 nM.

`CNCc1cc(-c2ccccc2F)n(S(=O)(=O)c2cccc(OCC3CNCCO3)c2)c1` (stereo not shown) [EXP 8, 1-(5-(2-fluorobenzene)-1-((3-(morpholinyl-2-yl-methoxyl)phenyl)sulfonyl)-1H-pyrrole-3-yl)-N-methyl methylamine]: the IC50 on H^+/K^+-ATPase was in the range of 100 to 1000 nM.

For the compound `CNCc1cc(-c2ccccc2F)n(S(=O)(=O)c2cccc(OCCN3CCCCC3)c2)c1` [EXP 11], the IC50 on H^+/K^+-ATPase lay in the range of 1000 to 5000 nM.

Regarding `CNCc1cc(-c2ccccc2F)n(S(=O)(=O)c2cccc(OCC(C)(C)COC)c2)c1` [EXP 9, 1-(5-(2-fluorobenzene)-1-((3-(3-methoxy-2,2-dimethylpropoxy)phenyl)sulfonyl)-1H-pyrrole-3-yl)-N-methyl methylamine], the IC50 on H^+/K^+-ATPase lay within 100 to 1000 nM.

For `CNCc1cc(-c2ccccc2F)n(S(=O)(=O)c2cccc(OCCOC)c2)c1` [EXP 3, 1-(5-(2-fluorobenzene)-1-((3-(2-methoxyethyoxyl)phenyl)sulfonyl)-1H-pyrrole-3-yl)-N-methyl methylamine], the IC50 on H^+/K^+-ATPase lay in the range of 100 to 1000 nM.

Take `CNCc1cc(-c2ccccc2F)n(S(=O)(=O)c2cccc(OC3CCN(C(C)=O)C3)c2)c1` (stereo not shown) [EXP 2, 1-(3-(3-((2-(2-fluorobenzene)-4-((methylamino)methyl)-1H-yl)sulfonyl)phenoxy)pyrrolidine-1-yl)ethyl-1-ketone]: at H^+/K^+-ATPase, the IC50 is 100 to 1000 nM.

Consider `CNCc1cc(-c2ccccc2F)n(S(=O)(=O)c2cccc(OCC(=O)NC)c2)c1` [EXP 14, 2-(3-((2-(2-fluorophenyl)-4-((methylamine)methyl)-1H-pyrrole-1-yl)sulfonyl)phenoxy)-N-methylacetamide], for which, in data set [1] (2 mg/kg by gavage 1 h before histamine, total acid of 3 h), the Total acid content is on record as 0.65 ± 0.20** 10^−4 mol. In addition, the “Acid inhibiting rate %” value in data set [1] (2 mg/kg by gavage, compared with model control) amounted to 40.4%. For the same compound, at H^+/K^+-ATPase, the IC50 was in the range of 100 to 1000 nM.

Take `CNCc1cc(-c2ccccc2F)n(S(=O)(=O)c2cccc(NCCN3CCOCC3)c2)c1` [EXP 6, 3-((2-(2-Fluorobenzene)-4-((Methylamino)Methylene)-1H-Pyrrole-1-Yl)Sulfonyl)-N-(2-Morpholinyl Ethyl) Henylamine]: on H^+/K^+-ATPase, the IC50 is 100 to 1000 nM.

(Values after patent publication US10913714B2, “Pyrrole sulfonyl derivative, preparation method and medical use thereof” (JIANGSU CAREPHAR PHARMACEUTICAL CO., LTD, priority 2015, dated 2021).)
